Results from ChEMBL document CHEMBL1201862, “PubChem BioAssay data set” (2004).
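Dose response: 5 concentrations. Exposure: 48 h. Format: 96-well plates. Endpoint: linear interpolation; highest concentration if not reached. The concentration for 50% growth inhibition is given as GI50.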 Calls of active or inactive are those of the source. Cut-off read from the data, not from the text of the source: active = GI50 up to about 1.1 µM and inactive = higher.

Experiments:
Assay in all cases: NCI anticancer screen, dose series, 48 h
OVCAR-3 = test system: OVCAR-3
A549 = test system: A549
SK-MEL-2 = test system: SK-MEL-2
T47D = test system: T47D
ACHN = test system: ACHN
PC-3 = test system: PC-3
OVCAR-5 = test system: OVCAR-5
Hs-578T = test system: Hs-578T
SK-OV-3 = test system: SK-OV-3
SK-MEL-28 = test system: SK-MEL-28
HOP-92 = test system: HOP-92
CAKI-1 = test system: CAKI-1
M14 = test system: M14
SW-620 = test system: SW-620
RPMI-8226 = test system: RPMI-8226
MCF7 = test system: MCF7
UACC-62 = test system: UACC-62
NCI/ADR-RES = test system: NCI/ADR-RES
COLO 205 = test system: COLO 205
MOLT-4 = test system: MOLT-4

Row | Structure (SMILES) | GI50 (OVCAR-3) | GI50 (A549) | GI50 (SK-MEL-2) | GI50 (T47D) | GI50 (ACHN) | GI50 (PC-3) | GI50 (OVCAR-5) | GI50 (Hs-578T) | GI50 (SK-OV-3) | GI50 (SK-MEL-28) | GI50 (HOP-92) | GI50 (CAKI-1) | GI50 (M14) | GI50 (SW-620) | GI50 (RPMI-8226) | GI50 (MCF7) | GI50 (UACC-62) | GI50 (NCI/ADR-RES) | GI50 (COLO 205) | GI50 (MOLT-4)
1 | O=C1NC(N2CCCC(CO)C2)=N/C1=C\c1cccs1 (stereo not given) | > 100 µM (inactive) | > 100 µM (inactive) | > 100 µM (inactive) | > 100 µM (inactive) | > 100 µM (inactive) | > 100 µM (inactive) | > 100 µM (inactive) | > 100 µM (inactive) | > 100 µM (inactive) | > 100 µM (inactive) | > 100 µM (inactive) | > 100 µM (inactive) | > 100 µM (inactive) | > 100 µM (inactive) | > 100 µM (inactive) | > 100 µM (inactive) | > 100 µM (inactive) | > 100 µM (inactive) | > 100 µM (inactive) | > 100 µM (inactive)
2 | O=C(Nc1nccs1)NS(=O)(=O)n1cnc2ccccc21 | > 100 µM (inactive) | > 100 µM (inactive) | > 100 µM (inactive) | > 100 µM (inactive) | > 100 µM (inactive) | > 100 µM (inactive) | > 100 µM (inactive) | > 100 µM (inactive) | > 100 µM (inactive) | > 100 µM (inactive) | > 100 µM (inactive) | > 100 µM (inactive) | > 100 µM (inactive) | > 100 µM (inactive) | > 100 µM (inactive) | > 100 µM (inactive) | > 100 µM (inactive) | > 100 µM (inactive) | > 100 µM (inactive) | > 100 µM (inactive)
3 | O=C(O)CC1NC(/C(=C/c2ccccc2)NC(=O)c2ccccc2)OC1=O (stereo not given) | 20.6 µM (inactive) | 84.5 µM (inactive) | 27.6 µM (inactive) | > 100 µM (inactive) | > 100 µM (inactive) | > 100 µM (inactive) | 76 µM (inactive) | 44.8 µM (inactive) | 55.3 µM (inactive) | 24.3 µM (inactive) | > 100 µM (inactive) | > 100 µM (inactive) | 17.1 µM (inactive) | 19.5 µM (inactive) | 20.2 µM (inactive) | 47.2 µM (inactive) | 22.5 µM (inactive) | 21.7 µM (inactive) | 19.8 µM (inactive) | 17.7 µM (inactive)
4 | CC1(C)C/C(=N/O)c2c(nc3ccc4ccccc4c3c2-c2ccc(Cl)cc2)C1 | 12.3 µM (inactive) | 19.4 µM (inactive) | 43.7 µM (inactive) | 12.1 µM (inactive) | 6.79 µM (inactive) | 25.9 µM (inactive) | 40.7 µM (inactive) | 23.3 µM (inactive) | 15 µM (inactive) | 31.3 µM (inactive) | 18.3 µM (inactive) | 13.5 µM (inactive) | 33.5 µM (inactive) | 18.3 µM (inactive) | 27.2 µM (inactive) | 11.2 µM (inactive) | 17.3 µM (inactive) | 17.5 µM (inactive) | 18.2 µM (inactive) | 18.2 µM (inactive)
5 | O=[N+]([O-])c1ccc2c(/N=N/c3ccc4ccccc4c3O)c(O)cc(S(=O)(=O)O)c2c1 | 4.89 µM (inactive) | 40.6 µM (inactive) | 23 µM (inactive) | 20.4 µM (inactive) | 7.13 µM (inactive) | 18.2 µM (inactive) | 15.1 µM (inactive) | 41 µM (inactive) | 18.7 µM (inactive) | 12 µM (inactive) | 21.6 µM (inactive) | 12.6 µM (inactive) | 6.76 µM (inactive) | 18.7 µM (inactive) | 17.8 µM (inactive) | 30.3 µM (inactive) | 7.21 µM (inactive) | 11.1 µM (inactive) | 27.7 µM (inactive) | 3.98 µM (inactive)
6 | CC1OC(OC2C(OC(=O)[C@]34CCC(C)(C)C[C@H]3C3=CC[C@@H]5[C@@]6(C)CC[C@H](OC7OC(C(=O)O)C(O)C(O)C7O)C(C)(C)[C@@H]6CC[C@@]5(C)[C@]3(C)C[C@H]4O)OCC(O)C2O)C(O)C(O)C1OC1OCC(OC2OCC(O)C(O)C2O)C(O)C1O (stereo not given in full) | 15.9 µM (inactive) | 3.9 µM (inactive) | 2.96 µM (inactive) | 7.16 µM (inactive) | 4.72 µM (inactive) | 6.46 µM (inactive) | 6.75 µM (inactive) | 19.1 µM (inactive) | 13.8 µM (inactive) | 3.44 µM (inactive) | 6.01 µM (inactive) | 9.73 µM (inactive) | 3.52 µM (inactive) | 10.9 µM (inactive) | 10.7 µM (inactive) | 5.07 µM (inactive) | 11 µM (inactive) | 11.1 µM (inactive) | 1.89 µM (inactive) | 14.8 µM (inactive)
7 | COc1c2c(cc3c1C1(O)Cc4ccc5c(c4C[N+]1(C)CC3)OCO5)OCO2 (stereo not given) | > 100 µM (inactive) | > 100 µM (inactive) | > 100 µM (inactive) | > 100 µM (inactive) | > 100 µM (inactive) | 73.5 µM (inactive) | > 100 µM (inactive) | > 100 µM (inactive) | > 100 µM (inactive) | > 100 µM (inactive) | > 100 µM (inactive) | > 100 µM (inactive) | > 100 µM (inactive) | > 100 µM (inactive) | 85.3 µM (inactive) | > 100 µM (inactive) | > 100 µM (inactive) | > 100 µM (inactive) | 58.5 µM (inactive) | 50.8 µM (inactive)
8 | C=CCOn1c(C=C)nc2c(C)cccc21 | 2.48 µM (inactive) | 3.38 µM (inactive) | 2.21 µM (inactive) | 1.99 µM (inactive) | 2.62 µM (inactive) | 3.08 µM (inactive) | 7.03 µM (inactive) | 4.98 µM (inactive) | 2.4 µM (inactive) | 10.6 µM (inactive) | 8.32 µM (inactive) | 2.06 µM (inactive) | 3.61 µM (inactive) | 3.2 µM (inactive) | 2.43 µM (inactive) | 2.92 µM (inactive) | 2.56 µM (inactive) | 3.12 µM (inactive) | 1.95 µM (inactive) | 3.64 µM (inactive)
9 | COc1ccc2nc3ccc(OC)cc3c([S+]([O-])Cc3ccc([N+](=O)[O-])cc3)c2c1 (stereo not given) | 5.47 µM (inactive) | 25.8 µM (inactive) | 17.9 µM (inactive) | 1.95 µM (inactive) | 5.52 µM (inactive) | 14.5 µM (inactive) | 12.9 µM (inactive) | 8.87 µM (inactive) | 21.1 µM (inactive) | 5.97 µM (inactive) | 3.13 µM (inactive) | 15.3 µM (inactive) | 7.87 µM (inactive) | 2.18 µM (inactive) | 2.61 µM (inactive) | 1.92 µM (inactive) | 15.2 µM (inactive) | 21.2 µM (inactive) | 2.92 µM (inactive) | 1.83 µM (inactive)
10 | NC(=O)c1cn(C2OC(CO)C(O)C2O)c2nc[n+]([O-])c(N)c12 (stereo not given) | 0.125 µM (active) | 0.285 µM (active) | 0.157 µM (active) | 0.103 µM (active) | 0.0351 µM (active) | 0.178 µM (active) | 0.161 µM (active) | 0.951 µM (active) | 0.0906 µM (active) | 0.341 µM (active) | 0.67 µM (active) | 0.0497 µM (active) | 0.111 µM (active) | 0.0409 µM (active) | 0.266 µM (active) | 0.2 µM (active) | 0.12 µM (active) | 0.107 µM (active) | 0.201 µM (active) | 0.104 µM (active)
11 | Cn1c(-c2cccs2)cc(-c2ccccc2)c1-c1cccs1 | 20.4 µM (inactive) | 12.3 µM (inactive) | 25.5 µM (inactive) | > 100 µM (inactive) | 39.9 µM (inactive) | 58.5 µM (inactive) | 88.5 µM (inactive) | > 100 µM (inactive) | 36.1 µM (inactive) | > 100 µM (inactive) | > 100 µM (inactive) | 93.5 µM (inactive) | 56.6 µM (inactive) | > 100 µM (inactive) | > 100 µM (inactive) | 3.58 µM (inactive) | 97.5 µM (inactive) | > 100 µM (inactive) | 19.1 µM (inactive) | 66.2 µM (inactive)
12 | CC1OC(OC2C(O[C@H]3CC[C@@]4(C)[C@@H](CC[C@@H]5[C@@H]4CC[C@]4(C)[C@@H]6[C@H](C[C@@H]54)O[C@]4(CC[C@@H](C)CO4)[C@H]6C)C3)OC(CO)C(OC3OC(CO)C(O)C(OC4OCC(O)C(O)C4O)C3OC3OCC(O)C(O)C3O)C2O)C(O)C(O)C1O (stereo not given in full) | 1.74 µM (inactive) | 0.336 µM (active) | 1.02 µM (active) | 1.8 µM (inactive) | 0.942 µM (active) | 0.64 µM (active) | 1.16 µM (inactive) | 1.03 µM (active) | 1.9 µM (inactive) | 0.745 µM (active) | 1.67 µM (inactive) | 0.706 µM (active) | 0.434 µM (active) | 0.251 µM (active) | 0.593 µM (active) | 0.342 µM (active) | 0.746 µM (active) | 1.58 µM (inactive) | 0.351 µM (active) | 1.04 µM (active)
13 | O/N=C(\CC(O)(C(F)(F)F)C(F)(F)F)c1cccs1 | > 10 µM (inactive) | > 10 µM (inactive) | > 10 µM (inactive) | > 10 µM (inactive) | > 10 µM (inactive) | > 10 µM (inactive) | > 10 µM (inactive) | > 10 µM (inactive) | > 10 µM (inactive) | > 10 µM (inactive) | > 10 µM (inactive) | > 10 µM (inactive) | > 10 µM (inactive) | > 10 µM (inactive) | > 10 µM (inactive) | > 10 µM (inactive) | > 10 µM (inactive) | > 10 µM (inactive) | > 10 µM (inactive) | > 10 µM (inactive)
